In this experiment the target is Ubiquitin-conjugating enzyme E2 N (Homo sapiens) (UniProt P61088). Description: UBE2N binders by NMR, biophysical, purified protein (AID 1552). Particulars: NMR binding to purified UBE2N.

The structures appear in SMILES notation. Calls of active or inactive are those of the source. No rule for the calls is given here.

Sequence of Ubiquitin-conjugating enzyme E2 N (Homo sapiens) (P61088 whole entry, looked up): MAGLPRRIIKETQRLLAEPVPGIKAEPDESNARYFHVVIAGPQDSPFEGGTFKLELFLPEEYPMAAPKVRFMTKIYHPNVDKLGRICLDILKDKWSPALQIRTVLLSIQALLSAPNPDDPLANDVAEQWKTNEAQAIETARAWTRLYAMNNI

In the case of `COc1cc2occc2c2oc(=O)ccc12`, the Kd (commonly the equilibrium constant for the complex coming apart) was > 4 mM (inactive).

Regarding `CNC(=O)Oc1ccc2c(c1)[C@]1(C)CCN(C)[C@@H]1N2C`, the Kd was > 4 mM (inactive).

Regarding `Cc1cccc(CSc2nncc(=O)[nH]2)c1`, the Kd is > 4 mM (inactive).

As to `CC(=O)Nc1ccc(S(=O)(=O)NC(N)=O)cc1`, the Kd is > 4 mM (inactive).

Take `O=C(NCc1ccco1)c1ccc(Br)s1`: the Kd was > 4 mM (inactive).

In the case of `Nc1ccc(S(=O)(=O)Nc2nccs2)cc1`, the Kd is > 4 mM (inactive).

For `Nc1nc(SCC(=O)c2ccc([N+](=O)[O-])cc2)n[nH]1`, the Kd was > 4 mM (inactive).

Turning to `CC(=O)Nc1nc2c(s1)C(=O)NCCC2`, the Kd was > 4 mM (inactive).

Take `Cc1scc(C(=O)Nc2ccon2)c1-c1ccccc1`: the Kd was > 4 mM (inactive).

Turning to `S=c1[nH]nc(-c2cccnc2)n1C1CCCCC1`, the Kd is > 4 mM (inactive).

With `COc1ccc(C(C)=O)c(OC)c1`, the Kd was > 4 mM (inactive).

Take `C[C@H]1[C@H](C)CC[C@]2(C(=O)O)CC[C@]3(C)C(=CCC4[C@@]5(C)C[C@@H](O)[C@H](O)[C@@](C)(CO)C5[C@H](O)C[C@]43C)[C@H]12` (some centres undefined): the Kd was > 4 mM (inactive).

Take `O=C(c1cnsn1)N1CCN(c2ccccc2)CC1`: the Kd was > 4 mM (inactive).

Regarding `CNC(=O)c1c(O)c2ccccc2[nH]c1=O`, the Kd is > 4 mM (inactive).

As for `Cc1nc(-c2ccc(C(=O)N3CCOCC3)cc2)cs1`, the Kd was > 4 mM (inactive).

For `Cc1ccc(SCc2nc(-c3cccnc3)no2)cc1`, the Kd was > 4 mM (inactive).

With `CN(c1ccccc1C(=O)N1CCOCC1)S(C)(=O)=O`, the Kd is > 4 mM (inactive).

Take `COc1c2occc2cc2ccc(=O)oc12`: the Kd is > 4 mM (inactive).

Regarding `COc1ccc2c(c1)OC1(O)COc3cc(OC)c(OC)cc3C1=C2` (centres undefined), the Kd is > 4 mM (inactive).

With `CC(=O)O[C@H]1CC[C@@]2(C)C(=CC(=O)C3C4CCC(C(C)CCCC(C)C)[C@@]4(C)CCC32)C1` (some centres undefined), the Kd was > 4 mM (inactive).

As to `Oc1ccccc1-c1nnco1`, the Kd is > 4 mM (inactive).

For the compound `O=C(O)CCC(=O)Nc1ccccn1`, the Kd was > 4 mM (inactive).

Turning to `CCN1C(=O)N(CO)C2C1N(C)C(=O)N2C` (centres undefined), the Kd is > 4 mM (inactive).

As to `CSc1nnc2c(n1)OC=Nc1ccccc1-2`, the Kd was > 4 mM (inactive).

`CC(C)CC(=O)Nc1c[nH]c(=O)[nH]c1=O`: the Kd is > 4 mM (inactive).

For the compound `O=C(CSc1nc2ccccc2[nH]1)N1CCCCC1`, the Kd is > 4 mM (inactive).

For the compound `CC(C)(C)NC(=O)N1CCC(C(N)=O)CC1`, the Kd was > 4 mM (inactive).

Consider `C[C@@H]1CC[C@@]2(OC1)O[C@H]1CC3C4CC[C@H]5C[C@@H](O)CC[C@]5(C)C4CC[C@]3(C)[C@H]1[C@@H]2C` (some centres undefined), for which the Kd was > 4 mM (inactive).

Consider `Cc1nnc2ccc(N3CCCC3)nn12`, for which the Kd is > 4 mM (inactive).

`Cn1c(O)c(C=NCC2CCNCC2)c(=O)n(C)c1=O`: the Kd was > 4 mM (inactive).

As for `COc1c(O)cc2c(c1O)[C@H]1O[C@H](CO)[C@@H](O)[C@H](O)[C@@H]1OC2=O`, the Kd is > 4 mM (inactive).

For the compound `Cc1nn(C)c(Cl)c1C(O)c1c(C)nn(C)c1Cl`, the Kd was > 4 mM (inactive).

As for `CN1C(=O)/C(=C/c2ccccc2O)NC1=S`, the Kd is > 4 mM (inactive).

As for `COc1cc(/C=C2\SC(=S)NC2=O)ccc1O`, the Kd is > 4 mM (inactive).

Consider `Nc1ccc(S(=O)(=O)N2CCOCC2)cc1`, for which the Kd is > 4 mM (inactive).

With `O=C(Nc1ccccc1)c1cccc(N2C(=O)CCC2=O)c1`, the Kd is > 4 mM (inactive).

On to `c1ccc(C[N+]23CCN(CC2)CC3)cc1`, for which the Kd is > 4 mM (inactive).

For `CN(C)C(=O)Oc1ccc(-c2nnco2)cc1`, the Kd is > 4 mM (inactive).

With `CC1=CC(=O)C2C(C)(C)CCC[C@]2(C)[C@@]1(O)CCc1ccoc1` (some centres undefined), the Kd is > 4 mM (inactive).

Turning to `CC1(C)Cc2nc(N3CCOCC3)c(C#N)cc2CO1`, the Kd was > 4 mM (inactive).

Consider `CC1=C(C(N)=O)C(c2ccco2)C(C(N)=O)=C(C)N1`, for which the Kd was > 4 mM (inactive).

With `Cc1c(-c2ccc(F)cc2)[n+](=O)c2c(n1[O-])CCC2`, the Kd was > 4 mM (inactive).

As for `O=C(NCc1cccc(Cl)c1)c1cccnc1`, the Kd is > 4 mM (inactive).

As for `Nc1ncnc(Nc2ccccc2C(F)(F)F)n1`, the Kd is > 4 mM (inactive).

Take `CC(=O)NC1=C(N(C)C)C(=O)c2ccccc2C1=O`: the Kd is > 4 mM (inactive).

For `Cc1cc(N)ccc1NC(=O)c1ccco1`, the Kd is > 4 mM (inactive).

For the compound `COc1cc(C(C)=O)ccc1OCC(O)Cn1ccnc1` (centres undefined), the Kd was > 4 mM (inactive).

In the case of `O=C1NCCCC1C(=O)N1CCCCC1` (centres undefined), the Kd was > 4 mM (inactive).

Turning to `CS(=O)(=O)NC1CCN(Cc2ccccc2)CC1`, the Kd is > 4 mM (inactive).

Consider `NC(=O)c1ccccc1N=Cc1ccco1`, for which the Kd was > 4 mM (inactive).

Take `CC(C)NC1CS(=O)(=O)CC1O` (centres undefined): the Kd was > 4 mM (inactive).

Turning to `CCOc1ccc(C(=O)c2ccc(OC)c(O)c2O)cc1`, the Kd was > 4 mM (inactive).

On to `NC(CCC(=O)Nc1ccc([N+](=O)[O-])cc1)C(=O)O` (centres undefined), for which the Kd was > 4 mM (inactive).

Consider `O=C(O)c1cccc(O)c1O`, for which the Kd is > 4 mM (inactive).

Consider `CC(=O)Nc1ccc2c(c1)CCC2=O`, for which the Kd is > 4 mM (inactive).

As for `C[N+](C)(C)CC(O)CC(=O)O` (centres undefined), the Kd was > 4 mM (inactive).

Consider `CNC(=O)C1CCCN(S(C)(=O)=O)C1` (centres undefined), for which the Kd was > 4 mM (inactive).

In the case of `COc1ccc(C2CC(=O)c3ccc(OC)cc3O2)cc1` (centres undefined), the Kd was > 4 mM (inactive).

Take `O=C1NC(=S)NC(=O)C1=Cc1ccco1`: the Kd was > 4 mM (inactive).

With `CN1CCCn2c1nc1c2c(=O)[nH]c(=O)n1C`, the Kd was > 4 mM (inactive).

For the compound `Oc1ccc2c(c1)OCO2`, the Kd was > 4 mM (inactive).

With `COc1ccccc1-c1cn[nH]c(=S)n1`, the Kd is > 4 mM (inactive).

Consider `CC(=O)c1cccc(NS(=O)(=O)N(C)C)c1`, for which the Kd was > 4 mM (inactive).

With `CCCn1cnn2c(=O)cc(C)nc12`, the Kd is > 4 mM (inactive).

Consider `O=C(c1cccs1)N1CCCc2ccccc21`, for which the Kd was > 4 mM (inactive).

Regarding `CC(=O)N1CCC(NC2CCCCCC2)CC1`, the Kd was > 4 mM (inactive).

Turning to `CC(=O)O[C@H]1C[C@@H](OC(C)=O)C(C)(C)C2C[C@@H](O)[C@]3(C)C(CC[C@@]4(C)[C@H](c5ccoc5)OC(=O)[C@H]5O[C@]543)[C@]21C` (some centres undefined), the Kd was > 4 mM (inactive).

As for `NCc1cccc2nsnc12`, the Kd is > 4 mM (inactive).

For the compound `Cc1nnsc1C(=O)O`, the Kd was > 4 mM (inactive).

On to `CN1CCC=C(C(=O)O)C1`, for which the Kd is > 4 mM (inactive).

Take `CC(=O)Nc1cccc(Cn2cccn2)c1`: the Kd was > 4 mM (inactive).

Regarding `c1ccc(Cc2nn3c(-c4ccncc4)nnc3s2)cc1`, the Kd is > 4 mM (inactive).

Take `CCOC(=O)c1cnc2n(c1=O)CCS2`: the Kd was > 4 mM (inactive).

Regarding `NC(N)=NOCC[C@H](N)C(=O)O`, the Kd is > 4 mM (inactive).

With `CC(=O)O[C@@H]1CC2C(C)(C)[C@H](O)C[C@H](O)[C@]2(C)C2CC[C@@]3(C)C(=CC(=O)O[C@H]3c3ccoc3)[C@@]21C` (some centres undefined), the Kd is > 4 mM (inactive).

In the case of `Cc1cccc(N2C(=O)CCC2=O)n1`, the Kd was > 4 mM (inactive).

Turning to `CCn1cnc2sc(C(=O)O)c(C)c2c1=O`, the Kd is > 4 mM (inactive).

As for `O=C(O)c1cccc2c1OCCO2`, the Kd is > 4 mM (inactive).

With `Cc1nc2ccccc2c(=O)n1/N=C/c1ccncc1`, the Kd was > 4 mM (inactive).

For `CCOC(=O)c1c(C)cc(OC)cc1O`, the Kd was > 4 mM (inactive).

Take `NC(=S)NC(=O)CN1C(=O)c2ccccc2C1=O`: the Kd was > 4 mM (inactive).

With `CCNC(CC(=O)Nc1ccc(F)cc1)C(=O)O` (centres undefined), the Kd is > 4 mM (inactive).

For the compound `O=C(O)CSc1nc2ccccc2c(=O)[nH]1`, the Kd was > 4 mM (inactive).

`CCNC(CC(=O)Nc1cccc([N+](=O)[O-])c1)C(=O)O` (centres undefined): the Kd was > 4 mM (inactive).

Take `Clc1ccc(-n2ccnc2)nn1`: the Kd was > 4 mM (inactive).

For `COc1cc2c(c(OC)c1OC)-c1ccc(O)c(=O)cc1[C@@H](NC(C)=O)CC2`, the Kd was > 4 mM (inactive).

`NC(=O)CSc1nnc2ccc(-c3ccccn3)nn12`: the Kd was > 4 mM (inactive).

As for `NC(=O)C1(c2ccccc2)CCOCC1`, the Kd was > 4 mM (inactive).

As for `COC1=CC(C)[C@@H]2C[C@H]3OC(=O)C[C@H]4C(C)=C(OC)C(=O)C([C@@]34C)[C@@]2(C)C1=O` (some centres undefined), the Kd is > 4 mM (inactive).

Consider `C=C1C2CC[C@@]3(C)[C@H](c4ccoc4)OC(=O)C[C@]13O[C@H]1C[C@H](OC(C)=O)C(C)(C)[C@H](CC(=O)OC)[C@@]21C`, for which the Kd was > 4 mM (inactive).

For `CC1CC[C@@]2(OC1)O[C@H]1CC3C4CC[C@@H]5C[C@@H](O)CC[C@]5(C)C4CC[C@]3(C)[C@H]1[C@@H]2C` (some centres undefined), the Kd was > 4 mM (inactive).

In the case of `C[C@@H]1CC[C@]2(C(=O)O)CC[C@]3(C)C(=CCC4[C@@]5(C)CC[C@H](O)C(C)(C)C5CC[C@]43C)C2[C@H]1C` (some centres undefined), the Kd is > 4 mM (inactive).

In the case of `c1ccc(CCN2CCN(CCc3ccccn3)CC2)nc1`, the Kd is > 4 mM (inactive).

Consider `COc1nc(C#N)c(N2CCOCC2)o1`, for which the Kd was > 4 mM (inactive).

As for `Cc1cc(SCC(=O)Nc2nccs2)nc(=O)[nH]1`, the Kd was > 4 mM (inactive).

On to `CCN1C(=O)c2c(C)nc3ccccc3c2C1=O`, for which the Kd is > 4 mM (inactive).

`CN1CCC(N2CCN(C)CC2)CC1`: the Kd was > 4 mM (inactive).

In the case of `O=C1NC(=S)N/C1=C/c1ccsc1`, the Kd was > 4 mM (inactive).

For `Nc1ccc(S(=O)(=O)N2CCCCC2)cc1`, the Kd was > 4 mM (inactive).

(Values after PubChem BioAssay AID1552 (Sanford-Burnham Center for Chemical Genomics, 2009).)
